We go through 2 compounds from paper PMC4629797 (Organic & biomolecular chemistry, 2015).

For experiment [1], the system named is MCF10A cell line (normal breast epithelial cells). The experiment is described as follows: Cytotoxicity, standard MTT colorimetric assay, MCF10A. The experiment is classed as cell-based. The note with it: read-out: IC50 MCF10A. Background: Tetrazolium assays rely on reduction of a dye to a coloured formazan, in cell work by metabolically active cells.
The subject of experiment [2] is MCF-7 cell line (breast cancer). The experiment is described as follows: Cytotoxicity, standard MTT colorimetric assay, MCF-7. The experiment is classed as cell-based. The following applies: read-out: IC50 MCF-7, MCF-7 breast cancer cells.
The test system of experiment [3] is 20S proteasome. The following applies: potency comparable to belactosins A and C; cited from earlier work.

As to `CC[C@H](C)[C@H](NC(=O)[C@@H](NC(=O)C1OC(=O)C1C(C)C)C(C)C)C(=O)O` (single isomer, unassigned; (-)) [(−)-1, cystargolide A], the results for the IC50 in experiment [1] and in experiment [2] were above 100 µM and 58 ± 9.5 µM, respectively. Moreover, in experiment [3], the “activity as 20S proteasome inhibitors” value is on record as “exhibited activity as 20S proteasome inhibitors”.
As to `CC(C)C1C(=O)OC1C(=O)N[C@H](C(=O)N[C@H](C(=O)O)C(C)C)C(C)C` (single isomer, unassigned; (-)) [(−)-2, cystargolide B], the figures for the IC50 in experiment [1] and in experiment [2] were above 100 µM and 84.7 ± 18.6 µM, respectively. Also, the “activity as 20S proteasome inhibitors” value in experiment [3] was “exhibited activity as 20S proteasome inhibitors”.

A word on the IC50: it is the concentration that gives 50% inhibition.
